Source: US7632817B2, “Peptide decoys for the preparation of medicaments intended for the prevention or treatment of autoimmune pathologies or disorders linked to the appearance of antibodies directed against exogenous proteins” (Centre National de la Recherche Scientifique, priority 2001, dated 2009)
Each block holds one sequence with its values, some of them ahead of it. Where no end group is shown, it is not given here.

How the values were obtained:
[1] = system: 2C11 antibody (binding to factor VIII); assay: ELISA: inhibition of binding of 2C11 antibody to immobilized FVIII by soluble peptides; set-up: species or system human
Description: The FVIII is immobilized on the ON plate at 4° C. In parallel, the inhibitor antibody is preincubated with its epitope peptide(s) in the ON range at 4° C. in 0.1% PBS-T-2% milk. After saturation for 1 hour with 0.1% PBS-T-2% milk, the Ab-peptide mixtures are incubated with the immobilized FVIII for 2 hours at 37° C. Between each of these incubations, 3 washings with 0.1% PBS-T are carried out except after the saturation. Detection of the FVIII-Ab complex is achieved by a mouse or human anti-IgG coupled to peroxidase diluted to 1:3000 incubated for 1 hour at 37° C. After 5 washings with 0.1% PBS-T, the peroxidase substrate (OPD) is added. The reaction takes place for 30 minutes in the dark then measurement of the absorbance is carried out at 450 nm. After stopping the reaction by the addition of H2SO4 4N, a new measurement is carried out at 490 nm.
The blocking activity of the decoys can be verified in vitro in an ELISA test. […] The neutralizing ability of the decoy can be confirmed in a functional test such as the Bethesda Test (method of Kasper, [Kasper et al., 1975, Thromb. Diath. Haemorrh. 34, 875-6]).
The Inventors studied the ability of these soluble peptides to inhibit the binding of the 2C11 antibody to factor VIII in an ELISA test in vitro in the following manner: immobilization of FVIII, pre-incubation of 2C11 with the soluble peptides in the range (200 μM, 20 μM, 2 μM, 200 nM, 20 nM, 2 nM) overnight at 4° C., then incubation of this premixture on the FVIII, then development of the 2C11 antibody. The results obtained are indicated hereafter.

2C11 antibody [2] = assay: Bethesda functional coagulation test: neutralization of the inhibiting activity of 2C11 by peptides; type: biochemical, human; details: for neutralization of the inhibiting activity of 2C11 (in words): 2C11 3.5 nM
Description: This functional test (Kasper, C. K. & Pool, J. G. (1975) Letter: Measurement of mild factor VIII inhibitors in Bethesda units, Thromb Diath Haemorrh. 34, 875-6) consists of measuring the time necessary for a mixture composed of different coagulation factors (FIXa, FVIII, phospholipides, calcium etc.) in order to coagulate completely. The inhibiting effect of an antibody is characterized in such a test by an extension of the coagulation time, the inhibiting ability of the antibody becomes greater as the extension of the coagulation time increases. The inhibiting character of an antibody is expressed in Bethesda units, which corresponds to the reciprocal concentration of antibodies in order to neutralize 50% of the coagulant activity of the FVIII. In contrast, the neutralizing effect of the peptides is translated by a return to the initial coagulation time obtained in the absence of inhibitor.
The functional test followed is derived from the abovementioned test described by Kasper. The anti-FVIII monoclonal antibodies are diluted in an 0.05 M imidazole buffer, pH 7.3. An equal volume of this preparation (250 μl) with normal plasma buffered in imidazole (0.1 M, pH 7.4) are mixed and incubated for 2 hours at 37° C. Similarly, normal plasma buffered in imidazole is mixed with a non-specific antibody which constitutes the control. The inhibiting activity of an antibody is read from a semi-logarithmic graph representing the correlation between the residual activity of the FVIII and the inhibiting activity.
This mixture is then treated as above.
Firstly, the Inventors evaluated in a functional coagulation test (Bethesda test) the ability of peptide 107 to restore the procoagulant activity of FVIII in the presence of 2C11. FIG. 2 depicts the dose-dependent neutralization of the inhibiting activity of 2C11 by peptide 107. […] However, higher peptide concentrations are necessary in order to achieve an effectiveness similar to that of peptide 107 (data not shown).
FIG. 2 represents the evolution of the activity of factor VIII, evaluated by the Bethesda test, in the presence of 3.5 nM of 2C11 antibody as a function of peptide concentration. The 2C11 antibody was incubated overnight at 4° C. in the presence of a control peptide or peptide 107 (SCHAWSNRRTCR) (SEQ ID NO: 10) in variable concentration. The factor VIII was then incubated for 2 hours at 37° C. with these peptide-antibody mixtures or with peptide 107 alone, then its residual activity was measured with a coagulometer, in one stage.

factor VIII = assay: Bethesda test: effect on procoagulant activity of factor VIII; type: biochemical, human; details: no antibody
Description: This functional test (Kasper, C. K. & Pool, J. G. (1975) Letter: Measurement of mild factor VIII inhibitors in Bethesda units, Thromb Diath Haemorrh. 34, 875-6) consists of measuring the time necessary for a mixture composed of different coagulation factors (FIXa, FVIII, phospholipides, calcium etc.) in order to coagulate completely. The inhibiting effect of an antibody is characterized in such a test by an extension of the coagulation time, the inhibiting ability of the antibody becomes greater as the extension of the coagulation time increases. […]
The functional test followed is derived from the abovementioned test described by Kasper. […] The inhibiting activity of an antibody is read from a semi-logarithmic graph representing the correlation between the residual activity of the FVIII and the inhibiting activity.
FIG. 1 represents the effect of the 2C11 antibody on the activity of factor VIII evaluated by the Bethesda test. Factor VIII was incubated in the presence of 3.5 nM of 2C11 antibody for 2 hours at 37° C., the residual activity of factor VIII was then measured with a coagulometer, in one stage.
FIG. 2 represents the evolution of the activity of factor VIII, evaluated by the Bethesda test, in the presence of 3.5 nM of 2C11 antibody as a function of peptide concentration. […]

2C11 antibody [3] = assay: In vivo neutralization of 2C11 in mice deficient in FVIII given human FVIII; set-up: species or system mouse
Description: Secondly, the neutralization properties of peptide 107 were studied in vivo, using a mouse model deficient in FVIII. […] Having determined this, 2C11 antibody ([…]) incubated alone, in the presence of peptide 107, or a control peptide (650 μM and 700 μM, respectively) was injected into the tail vein of three groups of mice respectively. Thirty minutes later, the FVIII plasma count of these mice was reconstituted by the injection of 0.5 UI of human FVIII and after fifteen minutes the plasma procoagulant activity was measured.
The 2C11 antibody (16.5 nM) or a mixture containing the 2C11 antibody (16.5 nM) and peptide 107 (650 μM) or a control peptide (700 μM) was injected into the tail vein of a “knock out” mouse, deficient in factor VIII, at a rate of 2.5 μg of 2C11 antibody, 1 mg of peptide 107 and 1 mg of control peptide. After 30 minutes, 0.5 UI of human factor VIII was injected and the plasma procoagulant activity was then measured by a chromogenic test 15 minutes later.
The percentage of residual activity of factor VIII is represented on the Y-axis. Bar A represents the effect of the injection of factor VIII without prior injection of antibodies (100% of residual activity). Bar B represents the effect of the injection of the 2C11 antibody alone prior to the injection of factor VIII. […]

[4] = system: FVIII inhibitors in serums of hemophilia patients; assay: Reactivity of serums of hemophilia patients with inhibitors with peptide 107; type: binding, human; details: out of 12 serums of hemophilia patients with inhibitors; preliminary study
Description: Thirdly, the Inventors looked at whether the neutralizing properties of peptide 107 vis-à-vis 2C11 could also be applied to other serums of hemophilia patients with inhibitors.

[5] = peptide concentration 0.002 (2 nM)
[6] = peptide concentration 0.02 (20 nM)
[7] = peptide concentration 20 (range: 20 μM)
[8] = peptide concentration 200 (range: 200 μM), pre-incubation overnight at 4° C.

Sequence: CSKWHNRSKRHC (Ac-CSKWHNRSKRHC; cysteine pairing not given here) [compound 105]
% inhibition of 2C11 binding to FVIII [1, 5]: 0% | % inhibition of 2C11 binding to FVIII [1, 6]: 0% | % inhibition of 2C11 binding to FVIII ([1]; peptide concentration 2 (2 μM)): 10.27% | % inhibition of 2C11 binding to FVIII [1, 7]: 45.04% | % inhibition of 2C11 binding to FVIII [1, 8]: 75.58% | neutralization of the inhibiting activity of 2C11 (in words) (2C11 antibody [2]): effectively neutralize

Sequence: ECGSHAWGRRCK (chain 1 Ac-ECGSHAWGRRCK; chain 2 Ac-ECGSHAWGRRCK; cysteine pairing not given here) [compound 104]
% inhibition of 2C11 binding to FVIII [1, 5]: 0% | % inhibition of 2C11 binding to FVIII [1, 6]: 0% | % inhibition of 2C11 binding to FVIII ([1]; peptide concentration 2 (2 μM)): 13.44% | % inhibition of 2C11 binding to FVIII [1, 7]: 30.68% | % inhibition of 2C11 binding to FVIII [1, 8]: 63.71% | neutralization of the inhibiting activity of 2C11 (in words) (2C11 antibody [2]): effectively neutralize

Sequence: KCGRWSNRSSCT (Ac-KCGRWSNRSSCT; cysteine pairing not given here) [compound 103]
% inhibition of 2C11 binding to FVIII [1, 5]: 0% | % inhibition of 2C11 binding to FVIII [1, 6]: 0% | % inhibition of 2C11 binding to FVIII ([1]; peptide concentration 2 (2 μM)): 3.47% | % inhibition of 2C11 binding to FVIII [1, 7]: 28.26% | % inhibition of 2C11 binding to FVIII [1, 8]: 62.73% | neutralization of the inhibiting activity of 2C11 (in words) (2C11 antibody [2]): effectively neutralize

The next lines start with results.

% inhibition of 2C11 binding to FVIII [1, 5]: 0% | % inhibition of 2C11 binding to FVIII [1, 6]: 0% | % inhibition of 2C11 binding to FVIII ([1]; peptide concentration 2 (2 μM)): 12.46% | % inhibition of 2C11 binding to FVIII [1, 7]: 37.48% | % inhibition of 2C11 binding to FVIII [1, 8]: 75.05%
Sequence: RCHAWSNRKSCV (Ac-RCHAWSNRKSCV; cysteine pairing not given here) [compound 109]
neutralization of the inhibiting activity of 2C11 (in words) (2C11 antibody [2]): effectively neutralize

% inhibition of 2C11 binding to FVIII [1, 5]: 0% | % inhibition of 2C11 binding to FVIII [1, 6]: 0% | % inhibition of 2C11 binding to FVIII ([1]; peptide concentration 2 (2 μM)): 0.00% | % inhibition of 2C11 binding to FVIII [1, 7]: 21.99% | % inhibition of 2C11 binding to FVIII [1, 8]: 36.56%
Sequence: CMKWSNRSSRWC (Ac-CMKWSNRSSRWC; cysteine pairing not given here) [compound 106]
neutralization of the inhibiting activity of 2C11 (in words) (2C11 antibody [2]): effectively neutralize

% inhibition of 2C11 binding to FVIII [1, 5]: 0% | % inhibition of 2C11 binding to FVIII [1, 6]: 0% | % inhibition of 2C11 binding to FVIII ([1]; peptide concentration 2 (2 μM)): 15.79% | % inhibition of 2C11 binding to FVIII [1, 7]: 25.99% | % inhibition of 2C11 binding to FVIII [1, 8]: 60.69%
Sequence: QCHTWSNRRSCL (Ac-QCHTWSNRRSCL; cysteine pairing not given here) [compound 108]
neutralization of the inhibiting activity of 2C11 (in words) (2C11 antibody [2]): effectively neutralize

inhibition of the 2C11 Ab/FVIII bond (in words) [1]: the most effective | % inhibition of 2C11 binding to FVIII [1, 5]: 0% | % inhibition of 2C11 binding to FVIII [1, 6]: 0% | % inhibition of 2C11 binding to FVIII ([1]; peptide concentration 2 (2 μM)): 37.33% | % inhibition of 2C11 binding to FVIII [1, 7]: 80.04% | % inhibition of 2C11 binding to FVIII [1, 8]: 90.48% | IC50 (2C11 antibody [2]; 2C11 concentration 3.5 nM): 19 µM
Sequence: SCHAWSNRRTCR [peptide 107]
neutralization of the inhibiting activity of 2C11 (in words) (2C11 antibody [2]): makes it possible to neutralize the effect of the 2C11 antibody | peptide concentration for total neutralization of 2C11 inhibiting effect (2C11 antibody [2]; 2C11 concentration 3.5 nM): ~100 µM | effect of peptide incubated with FVIII alone on procoagulant activity of FVIII (factor VIII): does not at all modify the procoagulant activity of the FVIII | procoagulant activity of the FVIII maintained (2C11 antibody [3]; 2C11 16.7 nM + peptide 650 μM injected in tail vein, 0.5 UI human FVIII after 30 min, measured 15 min later): 52% | neutralizing effect on 2C11 in vivo (in words) (2C11 antibody [3]; FVIII-deficient mice, peptide 107 650 μM, control peptide 700 μM): specifically neutralizes the effect of the 2C11 antibody in vivo | number of patient serums reacting with the peptide [4]: 2
